Experimental data: patent US20240189278A1, “NOVEL COMPOUNDS AND METHODS FOR INCREASING KLOTHO GENE EXPRESSION” (Klotho Therapeutics, Inc., priority 2017, published 2024)

Tests used:
Format in all cases: in vivo, mouse
[1] = tested on: MMP2; assay: MMP2 activity by zymogram PAGE, aortas of aged mice; conditions: zymography
Description: (§1) Animal study protocols. This example was performed according to the guide lines of the National Institute of Health on the care and use of laboratory animals and approved by the institutional Animal Care and Use Committee of University of Oklahoma Health Science Center. AU mice were housed in cages at room temperature (2S±PC) and were provided with Purina laboratory chow No 5001) and tap Water and lithium. 6 adult mice (12 months) and 20 old mice (24-26 months) mice were next in this study. The old (aged) mice were randomly divided into three subgroups and each group had 6 or 7 mice. One subgroup received compound H (10 mg/kg/day1, IP, Enamine LLC, Monmouth Jct., NJ) and one group received an equal volume of DMSO (dimethyl sulfoxide, 5%) and served as a control. The third group received no treatment Blood pressure was measured before and after treatment with the active agent at 1 week and 2 week. Pulse wave velocity (PWV) was measured after 2 weeks treatment with active agent all animals were sacrificed and perfused transcardially with PBS under deep anesthesia (ketamine xylazine, 90/10 mg, IP). […]
(§2) Measurements for MMP2 and MMP9 Activity. MMP2 and MMP9 activity were measured by Zymogram PAGE (Bio˜-Rad). Briefly Lysates from thoracic aorta were quantified using BCA assay (Pierce) and prepared under non-reducing, non-denaturing conditions. […]

[2] = tested on: MMP9; assay: Western blot of MMP9, aortas of aged mice
Description: as §1
(§3) Western Blot Analysis: Protein samples from the thoracic aorta were prepared in Lysis buffer as described previously. […] Protein abundance on western blots was quantified densitometry using Image lab software (Bio-Rad, Hercules, CA).

[3] = tested on: DNA methyltransferase; assay: DNA methyltransferase activity in aged mice; conditions: 2 weeks treatment
Description: as §1, with “One subgroup received compound H (10 mg/kg/day1, IP, Enamine LLC, Monmouth Jct., NJ) and one group received an equal volume of DMSO (dimethyl sulfoxide, 5%) and served as a control.” left out
Measurement of DNA Demethylase and DNA Methylation force Activity. The DNA demethylase and DNA methyltransferase activity was measured by using DNA demethylase activity qualification kit (Abeam˜Cambridge, MA) and methyltransferase coloritnetxic assay kit (Cayman Chemical Company, Ann Arbor, Michigan). […] The absorbance was read at […] for DNA methylene activity assay and 510 nm for DNA methyltransferase activity using BioTeck Multi-Mole Microplate Readers.

[4] = tested on: MMP9; assay: MMP9 activity by zymogram PAGE, aortas of aged mice; conditions: zymography
Description: as §1, §2

[5] = tested on: ALP; assay: Western blot of ALP, aortas of aged mice
Description: as §1, §3

[6] = tested on: SIRT1; assay: Western blot of SIRT1 and acetyl p53, aortas of aged mice
Description: as §1, §3

[7] = tested on: Klotho mRNA; assay: RT-PCR of Klotho mRNA in kidney of aged mice
Description: Animal study protocols. This example was performed according to the guide lines of the National Institute of Health on the care and use of laboratory animals and approved by the institutional Animal Care and Use Committee of University of Oklahoma Health Science Center. AU mice were housed in cages at room temperature (2S±PC) and were provided with Purina laboratory chow No 5001) and tap Water and lithium. 6 adult mice (12 months) and 20 old mice (24-26 months) mice were next in this study. The old (aged) mice were randomly divided into three subgroups and each group had 6 or 7 mice. One subgroup received compound H (10 mg/kg/day1, IP, Enamine LLC, Monmouth Jct., NJ) and one group received an equal volume of DMSO (dimethyl sulfoxide, 5%) and served as a control. The third group received no treatment Blood pressure was measured before and after treatment with the active agent at 1 week and 2 week. Pulse wave velocity (PWV) was measured after 2 weeks treatment with active agent all animals were sacrificed and perfused transcardially with PBS under deep anesthesia (ketamine xylazine, 90/10 mg, IP). The aortas were then quickly removed, washed and cut into pieces for subsequent analyses.
Reverse transcription-PCR (RT-PCR): Total RNA was extracted using a Direct˜zol T!vl RNA Miniprep kit (Zymo Research, Irvine CA) from kidney of adult and aged mice. […]

[8] = tested on: collagen-1; assay: Collagen in aortas of aged mice (staining and western blot)
Description: as §1, with “One subgroup received compound H (10 mg/kg/day1, IP, Enamine LLC, Monmouth Jct., NJ) and one group received an equal volume of DMSO (dimethyl sulfoxide, 5%) and served as a control.” left out
Histological and Immunohistochemical Staining: Thoracic aortas were quickly excised and placed in cold (4′T) physiological saline solution. […] Aorta rings were post-fixed in 4% paraformaldehyde, embedded in paraffin and sectioned at […] thickness, Collagen was quantified by Masson' s trichrome staining as described previously. […] Blue-stained collagen areas were quantified with ImageJ (NIH, Bethesda, USA) film 4-5 regions per section. […]

[9] = tested on: full-length Klotho; assay: Western blot of full-length Klotho in kidney of aged mice; conditions: kidney of 24-26 month-old mice

For `O=C(Nc1ccccc1Cl)c1c[nH]c2ccccc12` [active agent, N-(2-chlorophenyl)-Ul-indde-3-carboxamide], which MMP2 activity [1] is on record?
Its MMP2 activity is “decreased”.

And the MMP9 protein expression [2]?
Its MMP9 protein expression is “decreased”.

And the DNA methyltransferase activity [3]?
Its DNA methyltransferase activity is “did not affect”.

And the MMP9 activity [4]?
The MMP9 activity was “decreased”.

And the ALP expression [5]?
The ALP expression was “decreased”.

And the “SirT1 activity (deacetylation of p53)” value ([6]; aorta of old mice)?
The value was “increased”.

And the SIRT1 expression ([6]; aortas of aged mice)?
Its SIRT1 expression is “did not affect”.

And the “Secreted Klotho mRNA expression” value [7]?
Its value is “increased”.

What about the Collagen production [8] of the same compound?
Its Collagen production is “decreased”.

And the “Full-length Klotho expression” value [9]?
Its value is “did not affect”.
